The record followed here is patent publication US20230009626A1 (ICHNOS SCIENCES S.A., priority 2018, published 2023).

In this assay the target is HPK1 (MAP4K1) (Homo sapiens, UniProt Q92918). Briefly: FRET Assay for HPK1 (MAP4K1): one step binding assay, displacement of labeled tracer. The conditions noted are these: for inhibition at 1 µM: 1 μM compound; for inhibition at 1 µM / inhibition at 10 µM: FRET ratio 665/620, percent of control; for inhibition at 10 µM: 10 μM compound; for IC50: dose response curve, nonlinear regression. In a few lines: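 Percent inhibition at 1.0 and 10.0 μM and IC50 by nonlinear regression were derived from loss of FRET signal versus control. The signal runs from Eu-anti-GST antibody (4 nM) bound to 10 nM HPK1 kinase to Alexa Fluor 647 Kinase Tracer 222 (20 nM), added after a 15-min on-ice compound pre-incubation. Binding then proceeded 1 h at room temperature in HEPES pH 7.5 buffer with 10 mM MgCl2, 1 mM EGTA, 0.01% Brij-35 and 3% DMSO.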

SMILES strings stand for the structures.

Sequence of HPK1 (MAP4K1) (Q92918 whole entry): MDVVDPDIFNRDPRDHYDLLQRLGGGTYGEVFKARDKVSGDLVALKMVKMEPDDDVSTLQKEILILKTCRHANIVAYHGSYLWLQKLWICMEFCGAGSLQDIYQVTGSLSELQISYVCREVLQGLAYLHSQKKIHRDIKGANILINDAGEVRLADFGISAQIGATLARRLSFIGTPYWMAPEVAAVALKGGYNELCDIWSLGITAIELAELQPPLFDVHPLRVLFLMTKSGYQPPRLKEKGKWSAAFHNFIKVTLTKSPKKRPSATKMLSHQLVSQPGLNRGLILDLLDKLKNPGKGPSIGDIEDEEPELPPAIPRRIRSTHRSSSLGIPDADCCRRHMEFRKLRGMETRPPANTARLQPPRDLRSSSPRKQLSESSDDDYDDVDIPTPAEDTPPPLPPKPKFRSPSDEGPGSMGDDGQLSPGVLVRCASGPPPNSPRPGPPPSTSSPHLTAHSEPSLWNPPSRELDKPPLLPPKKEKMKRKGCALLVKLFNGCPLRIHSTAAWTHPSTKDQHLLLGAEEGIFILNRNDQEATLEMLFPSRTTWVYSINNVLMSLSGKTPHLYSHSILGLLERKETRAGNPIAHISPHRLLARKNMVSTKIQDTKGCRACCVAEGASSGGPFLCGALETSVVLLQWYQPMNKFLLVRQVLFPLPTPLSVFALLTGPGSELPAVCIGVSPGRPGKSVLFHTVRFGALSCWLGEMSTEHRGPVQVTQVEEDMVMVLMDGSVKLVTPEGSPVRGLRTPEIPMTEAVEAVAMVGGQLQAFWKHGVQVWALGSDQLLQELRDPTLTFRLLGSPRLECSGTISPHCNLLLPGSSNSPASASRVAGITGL

As for `C/C(Nc1ccn(C(F)F)n1)=C1/C(=O)Nc2cnc(-c3cnccc3C)cc21` [Example 81, (Z)-3-(1-((1-(Difluoromethyl)-1H-pyrazol-3-yl)amino)ethylidene)-5-(4-methylpyridin-3-yl)-1H-pyrrolo[2,3-c]pyridin-2(3H)-one], the inhibition at 1 µM stood at 73.8%, the inhibition at 10 µM came out at 82.2% and the IC50 was < 50 nM.
On the same counts, the results for `COc1cccc(F)c1-c1cc2c(cn1)NC(=O)/C2=C(/C)Nc1ccc(N2CCNCC2)cn1` [Example 124, (Z)-5-(2-Fluoro-6-methoxyphenyl)-3-(1-((5-(piperazin-1-yl)pyridin-2-yl)amino)ethylidene)-1H-pyrrolo[2,3-c]pyridin-2(3H)-one] are 79.6%, 89.7% and < 50 nM.
In the case of `C/C(Nc1cnn(CC(F)(F)F)c1)=C1/C(=O)Nc2cnc(-c3cnccc3C)cc21` [Example 69, (Z)-5-(4-Methylpyridin-3-yl)-3-(1-((1-(2,2,2-trifluoroethyl)-1H-pyrazol-4-yl)amino)ethylidene)-1H-pyrrolo[2,3-c]pyridin-2(3H)-one], the inhibition at 1 µM stood at 67% and the inhibition at 10 µM worked out at 65.5%.
With `C/C(Nc1ccc(N(C)C)nc1)=C1/C(=O)Nc2cnc(-c3cnccc3C)cc21` [Example 109, (Z)-3-(1-((6-(Dimethylamino)pyridin-3-yl)amino)ethylidene)-5-(4-methylpyridin-3-yl)-1H-pyrrolo[2,3-c]pyridin-2(3H)-one], the inhibition at 1 µM amounted to 72.4%, the inhibition at 10 µM was determined as 83.4% and the IC50 was < 50 nM.
Turning to `C/C(Nc1ccn(CC2CC2)n1)=C1/C(=O)Nc2cnc(-c3cnccc3C)cc21` [Example 103, (Z)-3-(1-((1-(Cyclopropylmethyl)-1H-pyrazol-3-yl)amino)ethylidene)-5-(4-methylpyridin-3-yl)-1H-pyrrolo[2,3-c]pyridin-2(3H)-one], the inhibition at 1 µM is 74.5%, the inhibition at 10 µM is 83.4% and the concentration for half-maximal inhibition (IC50) is < 50 nM.
Consider `C/C(Nc1cnn(CC2(O)CC2)c1)=C1/C(=O)Nc2cnc(-c3cnccc3C)cc21` [Example 174, (Z)-3-(1-((1-((1-Hydroxycyclopropyl)methyl)-1H-pyrazol-4-yl)amino)ethylidene)-5-(4-methylpyridin-3-yl)-1H-pyrrolo[2,3-c]pyridin-2(3H)-one], for which the inhibition at 1 µM was 55.1%, the inhibition at 10 µM was determined as 64.8% and the IC50 is < 50 nM.
For `CCS(=O)(=O)n1nc(N/C(C)=C2\C(=O)Nc3cnc(-c4cnccc4C)cc32)cc1C` [Example 180, (Z)-3-(1-((1-(Ethylsulfonyl)-5-methyl-1H-pyrazol-3-yl)amino)ethylidene)-5-(4-methylpyridin-3-yl)-1H-pyrrolo[2,3-c]pyridin-2(3H)-one] the same measures were 73%, 76.2% and < 50 nM.
Consider `COc1cccc(F)c1-c1ccc2c(c1)/C(=C(/Nc1cnn(C)c1)c1ccccc1)C(=O)N2` [Example 15, (Z)-5-(2-Fluoro-6-methoxyphenyl)-3-(((1-methyl-1H-pyrazol-4-yl)amino)(phenyl)methylene)indolin-2-one], for which the inhibition at 1 µM is 85.2%, the inhibition at 10 µM stood at 87% and the IC50 was < 50 nM.
For `COc1cccc(F)c1-c1cc2c(cn1)NC(=O)/C2=C(/C)Nc1cnn(C2CCOCC2)c1` [Example 44, (Z)-5-(2-Fluoro-6-methoxyphenyl)-3-(1-((1-(tetrahydro-2H-pyran-4-yl)-1H-pyrazol-4-yl)amino)ethylidene)-1H-pyrrolo[2,3-c]pyridin-2(3H)-one] the same measures were 91.4%, 93.1% and < 50 nM.
For `C/C(Nc1cnn(C)c1)=C1/C(=O)Nc2cnc(-c3c(C)noc3C)cc21` [Example 55, (Z)-5-(3,5dimethylisoxazol-4-yl)-3-(1-((1-methyl-1H-pyrazol-4-yl)amino)ethylidene)-1H-pyrrolo[2,3-c]pyridin-2(3H)-one] the same measures were 78%, 90% and 50 to 100 nM.
As for `COc1cccc(F)c1-c1ccc2c(c1)/C(=C(\C)Nc1ccc(N3CCN(C)CC3)cc1C)C(=O)N2` [Example 11, (Z)-5-(2-Fluoro-6-methoxyphenyl)-3-(1-((2-methyl-4-(4-methylpiperazin-1-yl)phenyl)amino)ethylidene)indolin-2-one], the inhibition at 1 µM is 73.2%, the inhibition at 10 µM was 84.4% and the IC50 is 100 to 500 nM.
On to `COc1cccc(F)c1-c1cc2c(cn1)NC(=O)/C2=C(/C)Nc1ccn(C)n1` [Example 28, (Z)-5-(2-Fluoro-6-methoxyphenyl)-3-(1-((1-methyl-1H-pyrazol-3-yl)amino)ethylidene)-1H-pyrrolo[2,3-c]pyridin-2(3H)-one], for which the inhibition at 1 µM stood at 84.8%, the inhibition at 10 µM amounted to 89.4% and the IC50 was < 50 nM.
Take `C/C(Nc1ccn(C(C)C)n1)=C1/C(=O)Nc2cnc(-c3cnccc3C)cc21` [Example 99, (Z)-3-(1-((1-Isopropyl-1H-pyrazol-3-yl)amino)ethylidene)-5-(4-methylpyridin-3-yl)-1H-pyrrolo[2,3-c]pyridin-2(3H)-one]: the inhibition at 1 µM was 70.1%, the inhibition at 10 µM worked out at 78.6% and the IC50 was in the range of 50 to 100 nM.
On the same counts, the results for `CC/C(Nc1ccn(C(C)(C)C#N)n1)=C1/C(=O)Nc2cnc(-c3cnccc3C)cc21` [Example 92, (Z)-2-Methyl-2-(3-((1-(5-(4-methylpyridin-3-yl)-2-oxo-1H-pyrrolo[2,3-c]pyridin-3(2H)-ylidene)propyl)amino)-1H-pyrazol-1-yl)propanenitrile] are 77%, 80.3% and < 50 nM.
On to `COc1cccc(F)c1-c1cc2c(cn1)NC(=O)/C2=C(/C)Nc1cnn([C@H](C)C#N)c1` [Example 171, (R,Z)-2-(4-((1-(5-(2-Fluoro-6-methoxyphenyl)-2-oxo-1H-pyrrolo[2,3-c]pyridin-3(2H)-ylidene)ethyl)amino)-1H-pyrazol-1-yl)propanenitrile], for which the inhibition at 1 µM was determined as 63.4%, the inhibition at 10 µM is 77% and the IC50 was 50 to 100 nM.
For `C/C(Nc1ccc(OC2CCNCC2)nc1)=C1/C(=O)Nc2cnc(-c3cnccc3C)cc21` [Example 84, (Z)-5-(4-Methylpyridin-3-yl)-3-(1-((6-(piperidin-4-yloxy)pyridin-3-yl)amino)ethylidene)-1H-pyrrolo[2,3-c]pyridin-2(3H)-one] the same measures were 75.2%, 70.4% and < 50 nM.
For `COc1cccc(F)c1-c1cc2c(cn1)NC(=O)/C2=C(/C)Nc1ccc(N2CCN(C)CC2)cc1` [Example 14, (Z)-5-(2-fluoro-6-methoxyphenyl)-3-(1-((4-(4-methylpiperazin-1-yl)phenyl)amino)ethylidene)-1H-pyrrolo[2,3-c]pyridin-2(3H)-one] the same measures were 86.3%, 88.3% and < 50 nM.
For the molecule `C/C(Nc1cc2n(n1)CCN(C)C2=O)=C1/C(=O)Nc2cnc(-c3cnccc3C)cc21` [Example 127, (Z)-5-Methyl-2-((1-(5-(4-methylpyridin-3-yl)-2-oxo-1H-pyrrolo[2,3-c]pyridin-3(2H)-ylidene)ethyl)amino)-6,7-dihydropyrazolo[1,5-a]pyrazin-4(5H)-onc], the inhibition at 1 µM came out at 75.1%, the inhibition at 10 µM was determined as 81.5% and the IC50 is < 50 nM.
On the same counts, the results for `COc1cccc(F)c1-c1cc2c(cc1F)NC(=O)/C2=C(/C)Nc1cnn(C)c1` [Example 26] are 88.8%, 93.5% and < 50 nM.
On the same counts, the results for `C/C(Nc1cnn(C)c1)=C1/C(=O)Nc2cnc(-c3cnc4c(c3C)NCCO4)cc21` [Example 45, (Z)-3-(1-((1-Methyl-1H-pyrazol-4-yl)amino)ethylidene)-5-(8-methyl-2,3-dihydro-1H-pyrido[2,3-b][1,4]oxazin-7-yl)-1H-pyrrolo[2,3-c]pyridin-2(3H)-one] are 72.4%, 86% and 100 to 500 nM.
Regarding `CN/C(=C1\C(=O)Nc2ccc(-c3c(F)cccc3OC)cc21)c1ccccc1` [Example 1, 5-(2-fluoro-6-methoxyphenyl)-3-((methylamino)(phenyl)methylene)indolin-2-one], the inhibition at 1 µM worked out at 69.8%, the inhibition at 10 µM amounted to 84% and the IC50 fell in the range of 100 to 500 nM.
On to `CC(=O)N1CC(n2ccc(N/C(C)=C3\C(=O)Nc4cnc(-c5cnccc5C)cc43)n2)C1` [Example 120, (Z)-3-(1-((1-(1-Acetylazetidin-3-yl)-1H-pyrazol-3-yl)amino)ethylidene)-5-(4-methylpyridin-3-yl)-1H-pyrrolo[2,3-c]pyridin-2(3H)-one], for which the inhibition at 1 µM worked out at 2.17% and the inhibition at 10 µM was 49%.
Turning to `C/C(Nc1cc2n(n1)CC(=O)N(C)C2)=C1/C(=O)Nc2cnc(-c3cnccc3C)cc21` [Example 126, (Z)-5-Methyl-2-((1-(5-(4-methylpyridin-3-yl)-2-oxo-1H-pyrrolo[2,3-c]pyridin-3(2H)-ylidene)ethyl)amino)-4,5-dihydropyrazolo[1,5-a]pyrazin-6(7H)-one], the inhibition at 1 µM is 82.4% and the IC50 is < 50 nM.
For `C/C(Nc1cc(C)n([C@@H](C)C#N)n1)=C1/C(=O)Nc2cnc(-c3c(C)cccc3F)cc21` [Example 208, (S,Z)-2-(3-((1-(5-(2-Fluoro-6-methylphenyl)-2-oxo-1H-pyrrolo[2,3-c]pyridin-3(2H)-ylidene)ethyl)amino)-5-methyl-1H-pyrazol-1-yl)propanenitrile] the same measures were 79.7% and < 50 nM.
